Data published in patent US12193994B2, “Combination of a cell therapy and a gamma secretase inhibitor” (Juno Therapeutics, Inc., priority 2017, dated 2025).

Tests used:
[1] = system: RPMI-8226 human multiple myeloma xenograft; assay type: in vivo
Experimental: Anti-tumor effects following administration of anti-BCMA CAR T cells and a gamma secretase inhibitor compound, LY3039478, each, individually, and in combination, were assessed in a RPMI-8226 human multiple myeloma xenograft mouse model. The anti-BCMA CAR-expressing T cells were generated as described in Example 2.
NOD.Cg.PrkdescidIL2rgtm1 Wjl/SzJ (NSG) mice were injected subcutaneously (s.c.) with 1E+07 RPMI-8226 cells modified to express GFP and firefly luciferase (RPMI-8226 ffluc), and tumor volume was allowed to increase over the course of 25 days, the 25th day being designated “day 0” in this study. Animals were divided into 8 groups, and each group received one of the following treatments: (1) vehicle only, (2) LY3039478 (3 mg/kg) only, (3) Mock T cells (not expressing the CAR) (3.00E+06 T cells per mouse) and vehicle, (4) Mock T cells (3.00E+06 T cells per mouse) and LY3039478 (3 mg/kg), (5) anti-BCMA CAR+ T cells (1.00E+06 CAR+ cells per mouse) and vehicle, (6) anti-BCMA CAR+ T cells (1.00E+06 CAR+ cells per mouse) and LY3039478 (3 mg/kg), (7) anti-BCMA CAR+ T cells (3.00E+06 CAR+ cells per mouse) and vehicle, or (8) anti-BCMA CAR+ T cells (3.00E+06 CAR+ cells per mouse) and LY3039478 (3 mg/kg). In each group, LY3039478 or vehicle was delivered by mouth (p.o.) at day-1 and at day zero (0) and every other day (e.o.d.) up to day 21. Where applicable, T cells were administered by a single intravenous (i.v.) injection on day 0.
CAR+ T cells in blood and in tumor were assessed on days 7, […], 21, and 28 by flow cytometry using antibodies specific for cell surface markers and a reagent specific to the anti-BCMA CAR. Animal survival was monitored throughout the study.
The presence of CAR+ T cells in the blood was monitored over the course of the study (from blood drawn on days 7, 14, 21 and 28 post CAR-T cell administration). White blood cells from blood samples were stained with various reagents to detect various markers on the surface of immune cells, including T cells, and expression of the CAR (including a reagent specific for the CAR and a reagent specific for a transduction marker encoded by the CAR vector).
Tumor digests were also analyzed to determine the number of CD4+ and CD8+ CAR+ T cells in tumors following the various treatment conditions. […] Serum BCMA was also assessed according to treatment condition.

[2] = system: MM1S cells; test: Serial restimulation of anti-BCMA CAR+ T cells with irradiated target cells: expansion and cytokines; assay type: cell-based, human; details: 0.001 μM and 1.0 μM
Source text: The ability of CAR T cells to expand ex vivo following repeated rounds of antigen stimulation can correlate with in vivo function and/or capacity of the cells to persist in in vivo (e.g., following administration and initial activation in response to encounter with antigen) (Zhao et al. (2015) Cancer Cell, 28:415-28). To assess the effect of the exemplary gamma secretase inhibitor on CAR-T cell activity after serial restimulation, anti-BCMA CAR+ T cells were generated as described above in Example 2, and irradiated BCMA-expressing target cells (MM1S cells) were added at an effector-to-target (E:T) ratio of 1:2 in the presence of LY3039478 at two different concentrations, either 0.001 μM (a concentration around the IC50) or a higher concentration of 1.0 μM (approximately 3 times Cmax), or with vehicle only control. The assay was performed on a composition of anti-BCMA CAR+ T cells generated from T cells derived from a healthy donor or from a donor with multiple myeloma. Every 3-4 days, CAR-expressing T cells were harvested, counted and re-plated at the initial seeding density with fresh media containing new irradiated target cells at the same E:T ratio in the presence or absence of the same concentration of LY3039478. A total of 3-5 rounds of stimulation were carried out during a 10-14 day culture period. Effects of the inhibitor on T cell function were assessed by monitoring the cell number (FIGS. 4A and 4B) or cytokine production in harvested supernatant (FIG. 5A and FIG. 5B) at each round of stimulation.
The production of cytokines by anti-BCMA CAR-T cells upon restimulation with antigen-expressing cells in the presence or absence of LY3039478 was assessed after the first round of re-plating at day 4. Culture supernatants were harvested 24 hours after re-plating, and IFN-gamma, IL-2 and TNF-alpha were measured from the culture supernatants.

[3] = system: BCMA on the surface of multiple myeloma cells; test: BCMA surface expression on multiple myeloma cells in patients given oral LY3039478; assay type: in vivo, human; details: mean, three 25 mg oral doses
Experimental: Three human subjects having multiple myeloma were administered three 25 mg doses of the gamma secretase inhibitor (GSI) LY3039478 by mouth. The absolute B cell maturation antigen (BCMA) antibody binding capacity (ABC) on the surface of multiple myeloma cells was quantitated by flow cytometry performed on bone marrow aspirate specimens obtained from each of the patients prior to administration of the GSI, and immediately after the third oral GSI dose. A mean 66-fold increase in BCMA ABC was observed following GSI administration (FIG. 15A).

[4] = system: anti-BCMA CAR+ T cells; test: Anti-BCMA CAR+ T cells incubated with BCMA-containing beads +/- LY3039478 (Luminex); assay type: cell-based, human; details: different concentrations
Experimental: Various parameters indicative of T cell function were assessed following incubation of anti-BCMA CAR+ T cells with BCMA-containing beads in the presence of different concentrations of the gamma secretase inhibitor, LY3039478, or vehicle (DMSO). Supernatant was harvested after 24 hours and production of TNF-alpha, IFN-gamma and IL-2 were measured using a Luminex Multiplex Assay.

[5] = no CAR+ T cells, LY3039478 3 mg/kg p.o. alone or with Mock T cells 3.00E+06
[6] = 24 hours after re-plating at day 4, both donors

C[C@H](NC(=O)CCC(F)(F)F)C(=O)N[C@@H]1C(=O)N(CCO)c2ncccc2-c2ccccc21 [LY3039478, 4,4,4-trifluoro-N-[(1S)-2-[[(7S)-5-(2-hydroxyethyl)-6-oxo-7H-pyrido[2,3-d][3]benzazepin-7-yl]amino]-1-methyl-2-oxo-ethyl]butanamide]
Day 65 Survival % [1, 5]: 0% | Median Survival [1, 5]: 22.5 days | Number of deaths [1, 5]: 10 | surface BCMA MFI on RPMI-8226 tumor cells (tumor digests, flow cytometry) ([1]; presence of LY3039478, days 7 and 15): increased | peripheral blood count of CD4+ or CD8+ T cells that did not express the anti-BCMA CAR ([1]; treated with or without LY3039478): No changes | levels of IFN-gamma [2, 6]: Increased levels | levels of IL-2 [2, 6]: Increased levels | levels of TNF-alpha [2, 6]: Increased levels | expansion of anti-BCMA CAR T cells ([2]; E:T 1:2, 10-14 days, healthy and myeloma donor): increased expansion | detrimental effects on CAR-T cell function ([2]; serial restimulation): did not exhibit any detrimental effects | increase in BCMA antibody binding capacity (ABC) following GSI administration ([3]; three subjects, bone marrow aspirate): 66 fold | percentage of plasma cells with measurable surface BCMA expression following the three oral doses ([3]; 35% (mean) before GSI): 98.4% | CAR+ T cell count [4]: did not impact | viability [4]: did not impact | cytokine production (TNF-alpha, IFN-gamma and IL-2) ([4]; 24 hours): did not impact
